Experimental data reported in patent US8664217B2, “Benzodiazepine compound and pharmaceutical composition” (Otsuka Pharmaceutical Co., Ltd., priority 2008, dated 2014).
Where a name gives a salt, the structure may show the parent alone.

The molecules below were run against T1, human GIRK1/4 channels (Homo sapiens, UniProt P48544+P48549) (assay: Measurement of human GIRK1/4 channel current by whole-cell patch clamp method (human GIRK1/4-expressing CHO cell line)). Settings: whole-cell patch clamp, human GIRK1/4-expressing CHO cells; step end current at −120 mV; test compound 0.1, 1, 10 μM; read-out: GIRK¼ IC50.
T1 construct: Full-length human GIRK1 cDNA was cloned from HuH cell- and HeLa cell-derived cDNA libraries; Full-length GIRK4 cDNA was amplified from a human heart cDNA library; expressed in transfected cells; host or cells: FLP-IN-CHO cells (Invitrogen)
T1 sequence (P48549 1-501): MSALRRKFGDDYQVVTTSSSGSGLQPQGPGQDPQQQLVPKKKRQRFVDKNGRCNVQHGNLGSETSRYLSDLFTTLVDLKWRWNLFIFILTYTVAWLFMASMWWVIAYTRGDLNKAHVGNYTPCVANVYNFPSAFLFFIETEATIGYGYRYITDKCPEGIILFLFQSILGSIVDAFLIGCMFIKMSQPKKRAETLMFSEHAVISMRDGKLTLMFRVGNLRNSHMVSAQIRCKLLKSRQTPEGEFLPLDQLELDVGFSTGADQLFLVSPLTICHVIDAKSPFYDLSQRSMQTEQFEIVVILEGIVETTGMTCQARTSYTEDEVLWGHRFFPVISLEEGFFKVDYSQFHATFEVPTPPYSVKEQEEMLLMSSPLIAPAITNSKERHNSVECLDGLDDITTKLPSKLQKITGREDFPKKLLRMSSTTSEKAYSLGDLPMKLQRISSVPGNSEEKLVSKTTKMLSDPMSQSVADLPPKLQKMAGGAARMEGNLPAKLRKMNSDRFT
T1 sequence (P48544 1-419): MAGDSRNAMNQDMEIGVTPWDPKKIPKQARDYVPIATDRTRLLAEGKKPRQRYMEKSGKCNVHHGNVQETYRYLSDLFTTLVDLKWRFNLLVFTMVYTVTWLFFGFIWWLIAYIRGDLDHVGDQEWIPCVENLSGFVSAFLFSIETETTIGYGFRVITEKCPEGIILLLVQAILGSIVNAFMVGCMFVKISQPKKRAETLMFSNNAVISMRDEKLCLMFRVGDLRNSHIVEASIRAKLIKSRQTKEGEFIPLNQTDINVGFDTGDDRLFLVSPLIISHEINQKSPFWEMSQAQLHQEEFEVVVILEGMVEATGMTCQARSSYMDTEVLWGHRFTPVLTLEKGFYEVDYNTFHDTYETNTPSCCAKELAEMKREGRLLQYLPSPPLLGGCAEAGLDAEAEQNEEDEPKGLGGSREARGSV
Assay type: cell-based
Description: (2) Production of CHO Cell Line Expressing Human GIRK1/4
CHO cell lines stably expressing human GIRK1/4 channels were prepared in the following manner.
Full-length human GIRK1 cDNA was cloned from HuH cell- and HeLa cell-derived cDNA libraries. Full-length GIRK4 cDNA was amplified from a human heart cDNA library (produced by Clontech Laboratories, Inc.) by PCR using synthetic primers shown in Table 1, and cloned into the Eco-RI restriction enzyme site of pCR-Blunt (produced by Invitrogen Corporation) or into the HincII site of pUC118 (produced by Takara Bio, Inc.).
The obtained human GIRK1 and GIRK4 cDNA sequences correspond to known sequences (NCBI database: GIRK1 (NM_002239) and GIRK4 (NM_000890) respectively). The obtained GIRK1 and GIRK4 cDNA sequences were cloned into the Eco-RI restriction enzyme site of pCR-Blunt (available from Invitrogen Corporation) or into the HincII site of pUC118 (available from Takara Bio, Inc.). A GIRK4 expression vector was constructed by insertion into the BamHI-XhoI site of pcDNA5/FRT. A GIRK1 expression vector was constructed by insertion into the KpnI-XhoI site of pcDNA3.1(+) or pCAG_neo. FLP-IN-CHO cells (produced by Invitrogen Corporation) were transfected with human GIRK1 and GIRK4 expression vectors by using Lipofectamine 2000 (produced by Invitrogen Corporation) according to the protocol enclosed with the reagent or using an electronic induction method (“Nucleofector Kit-T”, produced by Amaxa). First, the cells transfected with the GIRK4 expression vector were cultured in a 10% serum-containing F12 medium (produced by Sigma) supplemented with 600 μg/ml of hygromycin in an incubator with 5% carbon dioxide at 37° C. Then the cells expressing GIRK4 were transfected with the GIRK1 expression vector and were cultured in 10% serum-containing F12 medium supplemented with 350 μg/ml of G418 and 600 μg/ml of hygromycin in an incubator with 5% carbon dioxide at 37° C. to select GIRK1/4 expressing cell lines. Cell populations whose growth was observed after about 2 weeks were isolated using cloning rings, and the obtained single colonies were proliferated. RNA was extracted from single colonies, and single-stranded cDNA was synthesized by a cDNA synthesis kit (produced by Invitrogen Corporation), and the amount of expression was quantified at the mRNA level by real-time PCR (Applied Biosystems, Ltd.). Finally, the expressed current was analyzed by patch clamp method described below. The cell lines expressing a current of 500 pA or more per cell were selected as channel-expressing cell lines for activity measurement by patch clamping method.
(4) Measurement of Ion Channel Current by Patch Clamp Method (Human GIRK1/4-Expressing CHO-K1 Cell Line)
An experiment was carried out using a patch clamp setup at room temperature (20 to 26° C.). A perfusion chamber having a diameter of 20 mm (flow rate: about 5 ml/min) was mounted on the stage of a phase-contrast inverted microscope (produced by Nikon Corporation) placed on a vibration isolation table. A poly-L-lysine (produced by Sigma)-coated coverslip (diameter: 15 mm, produced by Matsunami Glass Ind., Ltd.) on which human GIRK1/4-expressing cells were cultured was placed in the perfusion chamber.
Hyperpolarizing stimulation pulses were applied and ionic current was recorded using a patch clamp amplifier (EPC-7 or EPC-7 PLUS, manufactured by HEKA) and a personal computer (manufactured by IBM Corp.) in which software for data acquisition and analysis of ion channel current (PULSE 8.77, manufactured by HEKA) was installed. The current was measured in the whole-cell configuration of the patch-clamp technique. The tip (resistance: 2 to 4 MΩ) of a borosilicate glass pipette (produced by Sutter Instrument Co.) was gently placed on the cell membrane by using a three-dimensional mechanical micromanipulator (produced by Shoshin EM Corporation). […] Subsequently, stronger suction was applied to break the cell membrane. […]

Compound | IC50
CCN1C(=O)C(C)(C)C(=O)N(C)c2cc(OCCCN(CCn3ccc4ccccc4c3=O)Cc3ccc(C#N)cc3)ccc21 [Example 85] | 150 nM
CCN1C(=O)C(C)(C)C(=O)N(C)c2cc(OCCCN(CCn3ccc4occc4c3=O)Cc3cccnc3)ccc21 [Example 551, 1-ethyl-3,3,5-trimethyl-7-(3-{[2-(4-oxo-4H-furo[3,2-c]pyridin-5-yl)ethyl]pyridin-3-ylmethylamino}-propoxy)-1,5-dihydrobenzo[b][1,4]diazepine-2,4-dione] | 5200 nM
CCN1C(=O)C(C)(C)C(=O)N(C)c2cc(OCCCN(CCc3cccnc3)S(=O)(=O)c3ccccc3)ccc21 [Example 628, N-[3-(1-ethyl-3,3,5-trimethyl-2,4-dioxo-2,3,4,5-tetrahydro-1H-benzo[b][1,4]diazepin-7-yloxy)propyl]-N-(2-pyridin-3-ylethyl)benzenesulfonamide hydrochloride] | 2500 nM
CCN1C(=O)C(C)(C)C(=O)N(C)c2cc(OCCCN(CCn3ccc4ccccc4c3=O)Cc3ccncc3)ccc21 [Example 23, 1-ethyl-3,3,5-trimethyl-7-(3-{[2-(1-oxo-1H-isoquinolin-2-yl)ethyl]pyridin-4-ylmethylamino}propoxy)-1,5-dihydrobenzo[b][1,4]diazepine-2,4-dione dihydrochloride] | 250 nM
CCN1C(=O)C(C)(C)C(=O)N(C)c2cc(OCCCN(CCn3ccc4occc4c3=O)Cc3ccc(C)nc3C)ccc21 [Example 629, 7-(3-{(2,6-dimethylpyridin-3-ylmethyl)-[2-(4-oxo-4H-furo[3,2-c]pyridin-5-yl)ethyl]amino}propoxy)-1-ethyl-3,3,5-trimethyl-1,5-dihydrobenzo[b][1,4]diazepine-2,4-dione dihydrochloride] | 170 nM
Cc1ccccc1CN(CCCOc1ccc2c(c1)N(C)C(=O)C(C)(C)C(=O)N2C)CCc1cccnc1 [Example 50, 1,3,3,5-tetramethyl-7-{3-[(2-methylbenzyl)-(2-pyridin-3-ylethyl)amino]propoxy}-1,5-dihydrobenzo[b][1,4]diazepine-2,4-dione dihydrochloride] | 460 nM
CN1C(=O)C(C)(C)C(=O)N(C)c2cc(OCCCN(CCc3cccnc3)Cc3ccncc3)ccc21 [Example 19, 1,3,3,5-tetramethyl-7-{3-[(2-pyridin-3-ylethyl)pyridin-4-ylmethylamino]propoxy}-1,5-dihydrobenzo[b][1,4]diazepine-2,4-dione trihydrochloride] | 1400 nM
CCN1C(=O)C(C)(C)C(=O)N(C)c2cc(OCCCN(CCn3ccc4occc4c3=O)Cc3cnccc3C)ccc21 [Example 590, 1-ethyl-3,3,5-trimethyl-7-(3-{(4-methylpyridin-3-ylmethyl)-[2-(4-oxo-4H-furo[3,2-c]pyridin-5-yl)ethyl]-amino}propoxy)-1,5-dihydrobenzo[b][1,4]diazepine-2,4-dione] | 2400 nM
CCN1C(=O)C(C)(C)C(=O)N(C)c2cc(OCCCN(CCc3cccnc3)Cc3ccccc3)ccc21 [Example 200] | 590 nM
CCN1C(=O)C(C)(C)C(=O)N(C)c2cc(OCCCN(CCc3cccnc3)Cc3ccccc3-c3cccnc3)ccc21 [Example 242] | 220 nM
CN1C(=O)C(C)(C)C(=O)N(C)c2cc(OCCCN(CCc3cccnc3)Cc3ccnc4ccccc34)ccc21 [Example 51, 1,3,3,5-tetramethyl-7-{3-[(2-pyridin-3-ylethyl)-(quinolin-4-ylmethyl)amino]propoxy}-1,5-dihydrobenzo[b][1,4]diazepine-2,4-dione trihydrochloride] | 1500 nM
CCN1C(=O)C(C)(C)C(=O)N(C)c2cc(OCCCN(CCn3ccc4ccsc4c3=O)Cc3ccncc3)ccc21 [Example 68, 1-ethyl-3,3,5-trimethyl-7-(3-{[2-(7-oxo-7H-thieno[2,3-c]pyridin-6-yl)ethyl]pyridin-4-ylmethylamino}propoxy)-1,5-dihydrobenzo[b][1,4]diazepine-2,4-dione] | 5100 nM
CCN1C(=O)C(C)(C)C(=O)N(C)c2cc(OCCCN(CCc3cccnc3)Cc3ccncc3C)ccc21 [Example 54, 1-ethyl-3,3,5-trimethyl-7-{3-[(3-methylpyridin-4-ylmethyl)-(2-pyridin-3-ylethyl)amino]propoxy}-1,5-dihydrobenzo[b][1,4]diazepine-2,4-dione trihydrochloride] | 970 nM
CCN1C(=O)C(C)(C)C(=O)N(C)c2cc(OCCCN(CCc3cccnc3)Cc3ccncc3)ccc21 [Example 8, 1-ethyl-3,3,5-trimethyl-7-{3-[(2-pyridin-3-ylethyl)pyridin-4-ylmethylamino]propoxy}-1,5-dihydrobenzo[b][1,4]diazepine-2,4-dione trihydrochloride] | 930 nM
CCN1C(=O)C(C)(C)C(=O)N(C)c2cc(OCCCN(CCn3ccc4ccccc4c3=O)S(=O)(=O)c3ccccc3)ccc21 [Example 634, N-[3-(1-ethyl-3,3,5-trimethyl-2,4-dioxo-2,3,4,5-tetrahydro-1H-benzo[b][1,4]diazepin-7-yloxy)propyl]-N-[2-(1-oxo-1H-isoquinolin-2-yl)ethyl]benzenesulfonamide] | 490 nM
CCN1C(=O)C(C)(C)C(=O)N(C)c2cc(OCCCN(CCc3cccnc3)C(=O)c3ccccc3)ccc21 [Example 633, N-[3-(1-ethyl-3,3,5-trimethyl-2,4-dioxo-2,3,4,5-tetrahydro-1H-benzo[b][1,4]diazepin-7-yloxy)propyl]-N-(2-pyridin-3-ylethyl)benzamide hydrochloride] | 8400 nM
CCN1C(=O)C(C)(C)C(=O)N(C)c2cc(OCCCN(CCn3ccc4ccoc4c3=O)Cc3ccc(C#N)cc3)ccc21 [Example 380] | 490 nM
CN(CCN(CCCOc1ccc2c(c1)N(C)C(=O)C(C)(C)C(=O)N2C)Cc1ccncc1)C(=O)c1ccccc1 [Example 45, N-methyl-N-(2-{pyridin-4-ylmethyl-[3-(1,3,3,5-tetramethyl-2,4-dioxo-2,3,4,5-tetrahydro-1H-benzo[b][1,4]diazepin-7-yloxy)propyl]amino}ethyl)benzamide dihydrochloride] | 2150 nM
